Experimental data: ChEMBL document CHEMBL3507680, “University of Dundee, Gates Library screen for HepG2 cell viability”

Test: Human HepG2 cell viability assay in 384 well format
Format: toxicity, cell-based
Parameters: dose 125 nL, time 70.5 hour; cytotoxicity at 70.5 h: concentration not given beside the values
Conditions: HepG2 cells, read-out: Inhibition

COc1ccc(C(=O)C2CCCN(Cc3ccon3)C2)c(OC)c1 (stereo unspecified)
cytotoxicity at 70.5 h: -10.4%

CC(NC1CCSCC1)c1ccccc1-n1cccn1 (stereo unspecified)
cytotoxicity at 70.5 h: -11.7%

Cc1nc(CCN2CCC(Oc3ccccc3F)CC2)cs1
cytotoxicity at 70.5 h: 9.73%

COc1cccc2c1OCC(CNC(=O)CCn1cnnn1)C2 (stereo unspecified)
cytotoxicity at 70.5 h: -1.24%

CCCn1cc(C(=O)NC(C)c2c(C)nn(CC)c2C)c(C)n1 (stereo unspecified)
cytotoxicity at 70.5 h: -8.59%

CN(Cc1nc(Cc2cccc(C(F)(F)F)c2)no1)C1CCCCC1
cytotoxicity at 70.5 h: -10.4%

CC(C)c1cc(C(=O)NCCN2CCCCC2CO)on1 (stereo unspecified)
cytotoxicity at 70.5 h: -7%

CCc1ccc(-c2cn3c(C(=O)NCC(C)C(=O)NC)csc3n2)cc1 (stereo unspecified)
cytotoxicity at 70.5 h: -1.36%

O=c1c(C(F)(F)F)cccn1Cc1nnc(-c2cccnc2)o1
cytotoxicity at 70.5 h: -0.729%

O=C(NC1CC1)C1CNCCN1C(=O)CCOc1ccccc1 (stereo unspecified)
cytotoxicity at 70.5 h: -0.757%

CCN(CC)C(=O)[C@@H]1C[C@H](n2cc(-c3cccc(OC)c3)nn2)CN1
cytotoxicity at 70.5 h: -3.79%

Cc1cccc2c(=O)c(C(=O)N3CCCC4(CN(C)C(=O)O4)C3)c[nH]c12 (stereo unspecified)
cytotoxicity at 70.5 h: -3.6%

Cn1cnc2cc(C(=O)N3CCC(c4ccccc4C(=O)O)C3)cnc21 (stereo unspecified)
cytotoxicity at 70.5 h: -8.01%

OC1(CNc2ccc(-c3nc(C4CC4)no3)cn2)CCCCC1
cytotoxicity at 70.5 h: 22%

CCc1cc(NC2CCN(Cc3ccccc3F)CC2)n2nccc2n1
cytotoxicity at 70.5 h: -16.6%

CN1CCN(Cc2ccccc2Oc2nccc3occc23)CC1
cytotoxicity at 70.5 h: -1.68%

O=C1CC2(CCN(C(=O)c3csc(-c4ccccc4)n3)C2)C(=O)N1 (stereo unspecified)
cytotoxicity at 70.5 h: -5.85%

OC1(CN2CCCCC2)CCN(c2cc(C(F)(F)F)ccn2)C1 (stereo unspecified)
cytotoxicity at 70.5 h: -22.3%

CCc1ncc(C(=O)N(C)Cc2cc(-c3ccncc3)no2)cn1
cytotoxicity at 70.5 h: 35.7%

CCN(Cc1cccc2c1OCO2)CC1CCCO1 (stereo unspecified)
cytotoxicity at 70.5 h: -6.33%

O=C(Nc1ccc(-n2cccn2)cc1)N1CCOCC(O)C1 (stereo unspecified)
cytotoxicity at 70.5 h: -20.9%

CCOc1ccccc1CC(=O)N1CCCC(c2ncc[nH]2)C1 (stereo unspecified)
cytotoxicity at 70.5 h: -0.431%

CC(C)(C)c1cn(C2CCN(C(=O)c3cncnc3)CC2)nn1
cytotoxicity at 70.5 h: 18%

Cc1ccc(C2(CN3CCN(c4ncccn4)CC3)CCNCC2)nc1
cytotoxicity at 70.5 h: -1.1%

Nc1cc(-c2cc(O)cc(C(=O)O)c2)c2cc[nH]c2n1
cytotoxicity at 70.5 h: -10.3%

CCC[C@@H]1CN(C(=O)c2ccccc2-c2ncc[nH]2)C[C@H]1N(C)C
cytotoxicity at 70.5 h: -2.55%

CSc1ccc(CCN2CCN([C@H]3CCCC[C@@H]3O)CC2)cc1
cytotoxicity at 70.5 h: -8.75%

CN(C)CCCC(=O)N1C[C@H]2CC[C@@H]1CN(Cc1ccccc1)C2
cytotoxicity at 70.5 h: -6.09%

O=C(NCC(F)(F)F)C(c1cccnc1)N1CCOCC1 (stereo unspecified)
cytotoxicity at 70.5 h: -5.8%

CCn1nc(CC(C)C)cc1C(=O)N1CCCOC(CN2CCCC2)C1 (stereo unspecified)
cytotoxicity at 70.5 h: -3.36%

CN(C)[C@H]1CN(C(=O)CCCc2ccc(F)cc2)C[C@@H]1C1CC1
cytotoxicity at 70.5 h: -7.35%

COc1cc(NCC(c2ccccn2)N2CCOCC2)ncn1 (stereo unspecified)
cytotoxicity at 70.5 h: -3.18%

Cc1nc2c(NC(CC(C)(C)C)c3cccnc3)ncnc2o1 (stereo unspecified)
cytotoxicity at 70.5 h: -10.9%

O=C(NCCC1CN(C2CCCC2)CCO1)c1cc(=O)[nH]c(=O)[nH]1 (stereo unspecified)
cytotoxicity at 70.5 h: -11.6%

Cc1ccc(F)cc1CC(=O)N1CC[C@@]2(O)CCNC[C@H]2C1
cytotoxicity at 70.5 h: -5.81%

Cc1ocnc1C(=O)N1CCC(c2nccn2Cc2ccncc2)CC1
cytotoxicity at 70.5 h: -6.78%

Cc1ccc(-c2ccnc(N[C@H]3COC[C@@H]3N3CCCC3)n2)c(C)n1
cytotoxicity at 70.5 h: -10.9%

CC(C)N(C)S(=O)(=O)c1ccc2c(c1)CCN(C(=O)c1cccnn1)C2
cytotoxicity at 70.5 h: -13.5%

Cc1nccnc1N1C[C@H]2CN(C3CCOCC3)C[C@@]2(C(=O)O)C1
cytotoxicity at 70.5 h: 2.61%

CCCOC1CCCN(c2nc(COC)nc3c2cnn3C)C1 (stereo unspecified)
cytotoxicity at 70.5 h: -19%

c1ccc(OCc2noc(CN3CCN(C4CCCC4)CC3)n2)cc1
cytotoxicity at 70.5 h: 9.68%

CC(NS(C)(=O)=O)C(=O)N(C)Cc1cnn(-c2ccc(F)cc2)c1 (stereo unspecified)
cytotoxicity at 70.5 h: 3.12%

C/C(=C\c1ccco1)CN(C)C(C)Cc1cc(C)ccn1 (stereo unspecified)
cytotoxicity at 70.5 h: -0.46%

CC(C)c1nccn1CCCNC(=O)c1ccc(-c2cnn(C)c2)nc1
cytotoxicity at 70.5 h: -5.24%

CCCC(=O)NCC1CCCN(Cc2cc(C)c(C)o2)C1 (stereo unspecified)
cytotoxicity at 70.5 h: 0.818%

Cc1cccc(N2CCC(N3CCC4(CN(C)C(=O)O4)C3)CC2)c1C (stereo unspecified)
cytotoxicity at 70.5 h: -9.4%

CS(=O)(=O)N1CCOC(CNC(=O)c2cccc(C#N)c2)C1 (stereo unspecified)
cytotoxicity at 70.5 h: 3.98%

CSCCC(O)C(=O)N1CCCN(Cc2cccnc2)CC1 (stereo unspecified)
cytotoxicity at 70.5 h: -9.6%

CCn1nc(C)c(C(=O)N2C[C@@H](CN(C)CCOC)[C@@H](CO)C2)c1C
cytotoxicity at 70.5 h: -6.72%

CC(C)Cc1nc(CCn2cncn2)n(-c2ccc3c(c2)OCCO3)n1
cytotoxicity at 70.5 h: -18%

CCCN1CCN(c2ccc(-c3nc(C)no3)cn2)CC1
cytotoxicity at 70.5 h: 13%

Cc1nc(CCCNC(=O)[C@H]2CNC[C@@H](C(=O)N3CCCC3)C2)sc1C
cytotoxicity at 70.5 h: -5.47%

Cc1cc2nc(C(C)C)cc(NCCc3cccn3C)n2n1
cytotoxicity at 70.5 h: -8.08%

Cc1cc(CN[C@@H](Cc2ccccc2)C(N)=O)c(C)s1
cytotoxicity at 70.5 h: -14.1%

COc1cccc2c1OCC(C(=O)N1CCN(C3CCCC3)C(=O)C1)C2 (stereo unspecified)
cytotoxicity at 70.5 h: -5.59%

CN(C)Cc1ccc(C2CCCCN2C(=O)c2cccnn2)cc1 (stereo unspecified)
cytotoxicity at 70.5 h: 2.83%

CSCc1nc(CNC(=O)c2cnn(C(C)C)c2)cs1
cytotoxicity at 70.5 h: -11.2%

CSc1nccc(N2CCC(NCc3ccc4c(c3)OCO4)CC2)n1
cytotoxicity at 70.5 h: 4.69%

Cc1cc2[nH]c(CN3CCOC(c4ccc(Cl)cc4)C3)cc(=O)n2n1 (stereo unspecified)
cytotoxicity at 70.5 h: -2.79%

CC(C)(CN1CCCC1)CN1CCC(Cn2cc(CCO)nn2)CC1
cytotoxicity at 70.5 h: 18.9%

CN(C)Cc1ccc(C(=O)N2CCCC(COc3ccc(F)cc3)C2)o1 (stereo unspecified)
cytotoxicity at 70.5 h: -5.29%

CN(C)c1nc2c(c(N3CCC(O)CC3)n1)CN(CC(C)(C)C)CC2
cytotoxicity at 70.5 h: -13.5%

CC1(C)CC(N2CCN(C3CCCC3)C(CCO)C2)CC(C)(C)C1 (stereo unspecified)
cytotoxicity at 70.5 h: -8.65%

CCn1c(C2CCN(C(=O)c3ccc4sc(C)nc4c3)CC2)n[nH]c1=O
cytotoxicity at 70.5 h: -17.3%

CCCn1ccnc1CN1C[C@@H](NC(C)=O)[C@H](c2ccc(OC)cc2)C1
cytotoxicity at 70.5 h: 15.8%

CCOc1ccc(OCc2nccc(-c3cc(C(=O)O)ccn3)n2)cc1
cytotoxicity at 70.5 h: 16%

O=C(Nc1ccccc1OCCc1ccccn1)NC1CCOCC1
cytotoxicity at 70.5 h: 18.2%

NC(=O)c1cc2c(nc1N1C[C@H]3OC(=O)N(C4CCCC4)[C@H]3C1)CCC2
cytotoxicity at 70.5 h: -10.7%

Cc1nn(-c2ccccc2)c(C)c1-c1ccnc(N2CCCOCC2)n1
cytotoxicity at 70.5 h: -3.17%

CS(=O)(=O)N[C@H]1CN(C(=O)CCc2ccc(=O)[nH]n2)C[C@@H]1C1CC1
cytotoxicity at 70.5 h: -7.22%

CN(CCSc1ccccc1)C(=O)c1cn2c(n1)CNCC2
cytotoxicity at 70.5 h: -12.8%

Cc1ccc(-c2ccnc(NCC(O)c3ccc(O)cc3)n2)c(C)n1 (stereo unspecified)
cytotoxicity at 70.5 h: -4.44%

Cc1nc(O)cc(CCNc2nc(N(C)C)nc(C)c2C)n1
cytotoxicity at 70.5 h: 22%

CNC(=O)Cc1ccc(-n2ccnc2-c2ccc(C(=O)O)s2)cc1
cytotoxicity at 70.5 h: -5.64%

CNC(=O)C(C)(C)NC(=O)c1cc(COc2ccccc2OC)[nH]n1
cytotoxicity at 70.5 h: -8.56%

O=C1NC[C@@]2(C(=O)O)CN(Cc3cccc(CN4CCOCC4)c3)C[C@@H]12
cytotoxicity at 70.5 h: 1.62%

CN(CC1CCCCO1)c1nncc(-c2cccc(F)c2)n1 (stereo unspecified)
cytotoxicity at 70.5 h: -3.62%

CCCOCC(=O)N1CCc2nc(NC)nc(C(=O)N3CCCC3)c2C1
cytotoxicity at 70.5 h: -4.23%

CN[C@@H](CO)C(=O)NCc1cc2n(n1)CCCN(C1CCCCC1)C2
cytotoxicity at 70.5 h: -6.96%

CC(C)(C)n1ccc(C(=O)N2CCCC(c3ncc[nH]3)C2)c1 (stereo unspecified)
cytotoxicity at 70.5 h: -1.92%

Cc1ncsc1CN(Cc1ccccc1)Cc1ccncc1
cytotoxicity at 70.5 h: 8.23%

Cc1ccccc1CS(=O)(=O)NCCCN1CCCC1
cytotoxicity at 70.5 h: -2.2%

CCOc1ccccc1-n1c(C2CC(=O)N(C)C2)n[nH]c1=O (stereo unspecified)
cytotoxicity at 70.5 h: -25.4%

CCn1ncnc1C(C)Nc1cc(C2CC2)ncn1 (stereo unspecified)
cytotoxicity at 70.5 h: -13%

COc1cc(C(N)=O)c(N(C)S(C)(=O)=O)cc1OC
cytotoxicity at 70.5 h: -9.06%

O=C(c1ccc(O)c(Cl)c1)N1C[C@@H](CN2CCCCCC2)[C@@H](CO)C1
cytotoxicity at 70.5 h: 3.21%

O=C1CCCCN1CCc1nc(-c2cccnn2)no1
cytotoxicity at 70.5 h: -2.5%

Cc1c(C(=O)N2CCC(N3CCCCC3)CC2)n(C)c2ccc(Cl)cc12
cytotoxicity at 70.5 h: -0.949%

Cc1ccc(C)c(OC(C)C(=O)Nc2cccnc2)c1 (stereo unspecified)
cytotoxicity at 70.5 h: -3.32%

Cc1ncsc1CCNC(=O)Cn1nc(C)n(Cc2ccccc2)c1=O
cytotoxicity at 70.5 h: -2.97%

CSCc1noc(Cn2ccc3ccccc3c2=O)n1
cytotoxicity at 70.5 h: -10.8%

CC(C)Cc1ncc2c(n1)CN(c1nc3ccccc3cc1CO)C2
cytotoxicity at 70.5 h: -14.3%

c1ccc(CN2CCC(NCCSc3cnn[nH]3)C2)cc1 (stereo unspecified)
cytotoxicity at 70.5 h: -3.66%

COc1ccc(NC2CCCN(Cc3cnc(N(C)C)s3)C2)cc1 (stereo unspecified)
cytotoxicity at 70.5 h: -6.11%

COc1cccc(-c2cc(C(=O)NCCn3nc(C)nc3C)[nH]n2)c1
cytotoxicity at 70.5 h: -7.22%

O=C(Cc1nc(-c2ccncc2)n[nH]1)N1CCOCC1
cytotoxicity at 70.5 h: -14.8%

CC(C)CN1CCc2[nH]cnc2C12CCN(C(=O)c1cnn(C)c1)CC2
cytotoxicity at 70.5 h: -7.51%

COCCN(Cc1ccccc1C)c1nc(C)nc2oc(C)nc12
cytotoxicity at 70.5 h: 0.842%

Cc1ccc(CN2CCN(c3nc4c(s3)c(C)nn4C)C(C)C2=O)cc1 (stereo unspecified)
cytotoxicity at 70.5 h: 31.2%

Cc1cc(-c2cncnc2)ccc1OCC(N)=O
cytotoxicity at 70.5 h: 13.6%

CCOc1ccc(C(=O)NC2CC2)cc1C
cytotoxicity at 70.5 h: -7.46%

COCCCNC(=O)Cc1nc(-c2ccncc2)n[nH]1
cytotoxicity at 70.5 h: -1.85%

COCCN1CCCC2(CCN(c3ncnc(C)c3C)C2)C1=O (stereo unspecified)
cytotoxicity at 70.5 h: 15.5%

CCNC(=O)c1cc(OC)c(OC)cc1N(C)S(C)(=O)=O
cytotoxicity at 70.5 h: -8.66%

COc1ccc(F)c(-c2cc(NCCO)nc(N)n2)c1
cytotoxicity at 70.5 h: -3.97%

CC(=O)N[C@@H]1CN(C(=O)c2cc3ccccc3[nH]2)C[C@H]1c1ccc(C)o1
cytotoxicity at 70.5 h: -9.58%

Cc1ccccc1N1CCCN(C(=O)CC2CN(C(C)C)CCO2)CC1 (stereo unspecified)
cytotoxicity at 70.5 h: 0.214%

COc1cccc2c1OCC(C(=O)N1CCC(NS(C)(=O)=O)CC1)C2 (stereo unspecified)
cytotoxicity at 70.5 h: -7.91%

COc1ccccc1[C@@H]1CN(CC(=O)N2CCCCC2)C[C@H]1C(=O)O
cytotoxicity at 70.5 h: -7.8%

O=C(c1cnn2cc(CCO)cnc12)N1CCOC(C(F)(F)F)C1 (stereo unspecified)
cytotoxicity at 70.5 h: -13%

CCNc1ncc(C(=O)NCCc2csc(CSC)n2)cn1
cytotoxicity at 70.5 h: -4.44%
